# Measured values published in article PMC2535826, “Cross-Species Differential Plasma Protein Binding of MBX-102/JNJ39659100: A Novel PPAR-γ Agonist” (PPAR Research, 2008).
# Like-named read-outs stand apart in the source and are kept apart here.
# Experiments:
# rat and human plasma = assay: Competitive equilibrium dialysis, rat versus human plasma; assay type: in vitro ADME, Sprague-Dawley rat; settings: 37°C, n = 5
# Protocol: (§1) A comparison of the binding to plasma from different species was performed essentially by the method described below. Briefly, [^3H] MBX-102 acid spiked plasma samples were formulated as described above with the exception that pH was not adjusted to 7.4 and the final DMSO concentration was 0.6%. A 1 mL sample of spiked human plasma was applied to one side of the dialysis membrane and 1 mL of spiked animal plasma was applied to the other side. The samples were dialyzed by rotation at 20 rpm for up to 120 hours in a 37°C incubator. The ratio of free drug in plasma was calculated according to the equation: ratio of free drug (animal versus human) = (total cpm in human plasma)/(total cpm in animal plasma).
# [1] = system: human alpha-1-acid glycoprotein; assay: Equilibrium dialysis binding to purified human alpha-1-acid glycoprotein; assay type: in vitro ADME; settings: purified human alpha-1-acid glycoprotein 22.5 μM, data not shown
# Protocol: Stock solutions of human serum albumin and alpha-1-acid glycoprotein were prepared in PBS buffer. […] The spiked protein solution (175 μL) was added to one side of an equilibrium dialysis chamber, and an equal volume of PBS buffer was added to the other chamber. Dialysis was allowed to reach equilibrium and the binding to protein was determined by liquid scintillation counting of samples from both chambers as described above.
# mouse serum albumin = molecular target: T1, mouse serum albumin (Mus musculus, UniProt P07724); assay: Albumin binding by surface plasmon resonance (SPR), MSA
# T1 construct: purchased Sigma
# T1 sequence (P07724 25-608): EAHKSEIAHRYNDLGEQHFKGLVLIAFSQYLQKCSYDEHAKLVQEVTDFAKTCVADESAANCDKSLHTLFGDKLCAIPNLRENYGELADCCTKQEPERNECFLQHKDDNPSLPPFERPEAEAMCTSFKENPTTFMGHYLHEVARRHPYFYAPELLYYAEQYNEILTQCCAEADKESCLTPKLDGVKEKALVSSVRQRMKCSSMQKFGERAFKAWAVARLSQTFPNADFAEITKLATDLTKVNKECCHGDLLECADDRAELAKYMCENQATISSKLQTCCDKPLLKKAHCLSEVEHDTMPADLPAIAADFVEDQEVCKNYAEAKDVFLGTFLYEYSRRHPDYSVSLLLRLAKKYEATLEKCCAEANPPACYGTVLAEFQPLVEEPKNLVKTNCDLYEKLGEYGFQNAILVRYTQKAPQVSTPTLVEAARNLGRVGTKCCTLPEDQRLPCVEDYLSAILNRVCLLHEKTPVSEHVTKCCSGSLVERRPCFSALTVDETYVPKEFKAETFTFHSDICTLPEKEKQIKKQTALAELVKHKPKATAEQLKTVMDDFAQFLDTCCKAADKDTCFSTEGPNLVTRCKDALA
# Protocol: (§2) The characterization of the binding of MBX-102 acid against human, mouse, and rat albumin was performed using SPR-based biosensors (Biosensor Tools, Salt Lake City, Utah, USA). The assay methods used to assess the binding of MBX-102 acid to human, mouse, and rat albumins have been described previously. Briefly, each albumin was immobilized onto a CM5 sensor chip using standard amine coupling. Immobilization densities were between 10 000 and 13 000 RU. […] Each of the 16 different concentrations was tested in duplicate. […] All binding data were collected at 37°C. The binding response profile of MBX-102 acid over the three different albumin surfaces was evaluated and the binding constants for the high-affinity site were determined using a two-independent-site model. Conversion from KD to %bound was performed as previously described.
# human serum albumin = molecular target: T2, human serum albumin (Homo sapiens, UniProt P02768); assay: Albumin binding by surface plasmon resonance (SPR), HSA; settings: for %Bound: converted from KD
# T2 construct: purchased Sigma
# T2 sequence (P02768 25-609): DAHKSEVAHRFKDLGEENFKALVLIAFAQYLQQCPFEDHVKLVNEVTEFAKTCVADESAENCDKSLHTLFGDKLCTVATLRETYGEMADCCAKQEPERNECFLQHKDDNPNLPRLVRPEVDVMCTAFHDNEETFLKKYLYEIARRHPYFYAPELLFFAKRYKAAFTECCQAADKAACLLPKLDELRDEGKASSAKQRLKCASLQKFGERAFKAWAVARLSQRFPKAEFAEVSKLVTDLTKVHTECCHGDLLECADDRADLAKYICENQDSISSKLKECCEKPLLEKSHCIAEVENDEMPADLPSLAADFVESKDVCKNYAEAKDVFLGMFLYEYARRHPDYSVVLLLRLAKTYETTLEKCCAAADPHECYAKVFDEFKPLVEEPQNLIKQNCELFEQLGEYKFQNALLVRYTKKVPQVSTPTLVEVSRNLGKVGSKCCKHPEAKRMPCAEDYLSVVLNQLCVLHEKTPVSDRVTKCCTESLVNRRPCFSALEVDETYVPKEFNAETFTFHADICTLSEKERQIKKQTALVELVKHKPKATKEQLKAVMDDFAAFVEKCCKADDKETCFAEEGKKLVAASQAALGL
# Protocol: as §2
# Gal 4-Mouse PPAR-γ LBD = molecular target: T3, Gal 4-Mouse PPAR-γ LBD (Mus musculus, UniProt P37238); assay: PPAR-γ reporter gene (transactivation) assay in HEK-293T cells with serum or serum proteins; assay type: cell-based
# T3 construct: 5 μg Gal 4-Mouse PPAR-γ LBD; expressed in transfected cells; host or cells: HEK-293T
# T3 sequence (P37238 238-503 limits assumed): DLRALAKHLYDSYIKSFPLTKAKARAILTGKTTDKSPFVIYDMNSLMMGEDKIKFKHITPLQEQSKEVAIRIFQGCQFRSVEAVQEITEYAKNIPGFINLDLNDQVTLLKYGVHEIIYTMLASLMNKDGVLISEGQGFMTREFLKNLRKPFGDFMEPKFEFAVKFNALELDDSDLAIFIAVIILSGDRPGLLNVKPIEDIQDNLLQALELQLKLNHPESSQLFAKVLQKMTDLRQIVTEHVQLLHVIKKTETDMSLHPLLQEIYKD
# Protocol: All cells were maintained at 37°C in a humidified atmosphere of 8% CO2 in air.
# (§3) For a pool sufficient to supply 100 wells, 6 million cells were diluted into medium for a total volume of 9 mL. The DNA-Lipofectamine 2000 mixture was prepared as per manufacturer’s instructions. For a pool sufficient to supply 100 wells, 5 μg Gal 4-Mouse PPAR-γ LBD, 5 μg pFR-Luciferase, and 500 ng Lac-z plasmids were mixed with 40 μL of Lipofectamine 2000 in Optimem medium in a total volume of 1 mL. The cell suspension was mixed with 1 mL of the DNA-Lipofectamine 2000 mixture. The mixture was plated into a 96-well plate and incubated for 4 hours at which time the transfection medium was removed and replaced with 100 μL DMEM, 10% (v/v) FBS and cultured overnight. The culture medium was then removed from the plates and replaced with 50 μL Pro293A medium. Compounds and charcoal stripped/delipidated serum or serum albumin, or alpha-1 acid glycoprotein stock solutions were prepared at 2X final concentration in Pro293A medium and mixed together prior to addition of 50 μL to the transfected cells and incubated for an additional 24 hours. Measurement of luciferase and fluorescence activity was performed according to the manufacturer’s instructions. Briefly, after removal of media, cells were incubated for 10 minutes in 100 μL of Steady-Glo reagent. An 80 μL lysate aliquot was transferred to opaque white well plates and the luminescence measured. The 80 μL aliquot was then transferred back to the original plate. […] Each experimental condition was assessed in quadruplicate. The data were normalized for each well by dividing the luminescence measurement by the fluorescence measurement. Dose-response curves were generated and EC50 values were calculated using Prism Graphpad version 5.1.
# rat serum albumin = molecular target: T4, rat serum albumin (Rattus norvegicus, UniProt P02770); assay: Albumin binding by surface plasmon resonance (SPR), RSA
# T4 construct: purchased Sigma
# T4 sequence (P02770 25-608): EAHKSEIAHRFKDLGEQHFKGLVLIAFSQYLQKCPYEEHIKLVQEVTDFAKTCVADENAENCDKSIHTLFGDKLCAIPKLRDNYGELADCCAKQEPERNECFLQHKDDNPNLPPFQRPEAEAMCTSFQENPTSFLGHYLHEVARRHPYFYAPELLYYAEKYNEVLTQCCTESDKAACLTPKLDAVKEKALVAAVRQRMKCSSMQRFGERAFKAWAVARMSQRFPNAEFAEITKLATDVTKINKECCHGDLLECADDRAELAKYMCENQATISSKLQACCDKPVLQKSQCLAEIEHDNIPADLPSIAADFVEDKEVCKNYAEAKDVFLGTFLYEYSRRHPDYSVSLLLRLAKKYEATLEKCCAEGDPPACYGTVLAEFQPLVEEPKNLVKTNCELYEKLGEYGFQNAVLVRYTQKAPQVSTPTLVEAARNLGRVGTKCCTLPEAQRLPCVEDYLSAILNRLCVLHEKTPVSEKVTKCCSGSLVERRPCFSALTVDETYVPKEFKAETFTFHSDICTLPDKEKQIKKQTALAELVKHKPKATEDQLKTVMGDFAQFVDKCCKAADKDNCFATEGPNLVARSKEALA
# Protocol: as §2
# [2] = system: human, mouse, or rat PPAR-γ; assay: PPAR-γ reporter gene assays comparing human, mouse and rat PPAR-γ (data not shown); assay type: cell-based
# Protocol: as §3, with “Compounds and charcoal stripped/delipidated serum or serum albumin, or alpha-1 acid glycoprotein stock solutions were prepared at 2X final concentration in Pro293A medium and mixed together prior to addition of 50 μL to the transfected cells and incubated for an additional 24 hours.” left out, “Briefly, after removal of media, cells were incubated for 10 minutes in 100 μL of Steady-Glo reagent.” left out, “measured.” for “measured. The 80 μL aliquot was then transferred back to the original plate.”
# mouse and human plasma = assay: Competitive equilibrium dialysis, mouse versus human plasma; assay type: in vitro ADME, CD-1 mouse; settings: 37°C, n = 5
# Protocol: as §1
# [3] = high-affinity site, two-independent-site model, 37°C, pH 7.4
structure (smiles),measurement,setting,value
O=C(O)[C@H](Oc1cccc(C(F)(F)F)c1)c1ccc(Cl)cc1 (stereo in doubt) [MBX-102 acid],Free Fraction Ratio Rat:Human,rat and human plasma; MBX-102 acid 100 μM,2.3 ± 0.6
same,Free Fraction Ratio Rat:Human,rat and human plasma; MBX-102 acid 300 μM,2.3 ± 0.6
same,Free Fraction Ratio Rat:Human,rat and human plasma; MBX-102 acid 700 μM,2.0 ± 0.3
same,Free Fraction Ratio Rat:Human,rat and human plasma; MBX-102 acid 1000 μM,1.8 ± 0.2
same,Free Fraction Ratio Rat:Human,rat and human plasma; MBX-102 acid 1300 μM,1.7 ± 0.2
same,binding to human alpha 1-acid glycoprotein,[1],< 5%
same,%Bound,mouse serum albumin; converted from KD,99.2%
same,Kd,mouse serum albumin; [3],5.5 µM
same,%Bound,human serum albumin,> 98%
same,%Bound,human serum albumin; listed as MBX-102,99.1%
same,Kd,human serum albumin; [3],5.8 µM
same,EC50,"Gal 4-Mouse PPAR-γ LBD; 0% human serum albumin (Figure 3), 2–6 experiments, mean ± SD, read-out: EC50 PPAR-γ activation",14.4 ± 2.5 µM
same,EC50,"Gal 4-Mouse PPAR-γ LBD; 0% serum (Figure 2), 3 experiments, mean ± SD, read-out: EC50 PPAR-γ activation",15.1 ± 1.9 µM
same,EC50,"Gal 4-Mouse PPAR-γ LBD; 0.08% human serum albumin (Figure 3), 2–6 experiments, mean ± SD, read-out: EC50 PPAR-γ activation",44 ± 5.6 µM
same,EC50,"Gal 4-Mouse PPAR-γ LBD; 2% (v/v) human serum (Figure 2), 3 experiments, mean ± SD, read-out: EC50 PPAR-γ activation",43.5 ± 6.9 µM
same,fold change in mean EC50 relative to no serum,Gal 4-Mouse PPAR-γ LBD; 2% human serum,3 fold
same,EC50,"Gal 4-Mouse PPAR-γ LBD; 10% (v/v) human serum (Figure 2), 3 experiments, mean ± SD, read-out: EC50 PPAR-γ activation",288 ± 39.6 µM
same,fold change in mean EC50 relative to no serum,Gal 4-Mouse PPAR-γ LBD; 10% human serum,19 fold
same,EC50,"Gal 4-Mouse PPAR-γ LBD; 10% human serum (Table 4, Figure 4), 3 experiments, read-out: Mean EC50 ± SD, Human",260 ± 16.9 µM
same,EC50,"Gal 4-Mouse PPAR-γ LBD; 10% mouse serum (Table 4, Figure 4), 3 experiments, read-out: Mean EC50 ± SD, Mouse",170 µM
same,EC50,"Gal 4-Mouse PPAR-γ LBD; 10% rat serum (Table 4, Figure 4), 3 experiments, read-out: Mean EC50 ± SD, Rat",196 ± 18 µM
same,EC50,"Gal 4-Mouse PPAR-γ LBD; 20% (v/v) human serum (Figure 2), 3 experiments, mean ± SD, read-out: EC50 PPAR-γ activation",442 ± 29.8 µM
same,fold change in mean EC50 relative to no serum,Gal 4-Mouse PPAR-γ LBD; 20% human serum,29 fold
same,%Bound,"rat serum albumin; RSA, converted from KD",98.1%
same,Kd,"rat serum albumin; RSA, high-affinity site, two-independent-site model, 37°C, pH 7.4",12.8 µM
same,fraction unbound,"rat serum albumin; rat, rat serum albumin immobilized on a CM5 sensor chip, pH 7.4, RSA, converted from KD, read-out: %Bound",< 0.02
same,"intrinsic differences in ability to activate human, mouse, or rat PPAR-γ",[2],no intrinsic differences
same,Free Fraction Ratio Mouse:Human,mouse and human plasma; MBX-102 acid 100 μM,10.5 ± 5.5
same,Free Fraction Ratio Mouse:Human,mouse and human plasma; MBX-102 acid 300 μM,5.9 ± 3.6
same,Free Fraction Ratio Mouse:Human,mouse and human plasma; MBX-102 acid 700 μM,3.7 ± 1.9
same,Free Fraction Ratio Mouse:Human,mouse and human plasma; MBX-102 acid 1000 μM,2.6 ± 1.1
same,Free Fraction Ratio Mouse:Human,mouse and human plasma; MBX-102 acid 1300 μM,2.3 ± 0.7
